The values that follow come from US7727980B2, “Tricyclic androgen receptor modulator compounds and methods” (priority 2001, dated 2010).

As usually defined, the Ki is a dissociation constant, usually derived from enzyme kinetics or from competition with a known ligand. One may read the IC50 as the concentration that gives 50% inhibition. In general, EC50 refers to the concentration needed to bring the measured effect to its halfway point.

The target in test [1] is T1, human AR (Homo sapiens, UniProt P10275).
T1 sequence (P10275 1-920): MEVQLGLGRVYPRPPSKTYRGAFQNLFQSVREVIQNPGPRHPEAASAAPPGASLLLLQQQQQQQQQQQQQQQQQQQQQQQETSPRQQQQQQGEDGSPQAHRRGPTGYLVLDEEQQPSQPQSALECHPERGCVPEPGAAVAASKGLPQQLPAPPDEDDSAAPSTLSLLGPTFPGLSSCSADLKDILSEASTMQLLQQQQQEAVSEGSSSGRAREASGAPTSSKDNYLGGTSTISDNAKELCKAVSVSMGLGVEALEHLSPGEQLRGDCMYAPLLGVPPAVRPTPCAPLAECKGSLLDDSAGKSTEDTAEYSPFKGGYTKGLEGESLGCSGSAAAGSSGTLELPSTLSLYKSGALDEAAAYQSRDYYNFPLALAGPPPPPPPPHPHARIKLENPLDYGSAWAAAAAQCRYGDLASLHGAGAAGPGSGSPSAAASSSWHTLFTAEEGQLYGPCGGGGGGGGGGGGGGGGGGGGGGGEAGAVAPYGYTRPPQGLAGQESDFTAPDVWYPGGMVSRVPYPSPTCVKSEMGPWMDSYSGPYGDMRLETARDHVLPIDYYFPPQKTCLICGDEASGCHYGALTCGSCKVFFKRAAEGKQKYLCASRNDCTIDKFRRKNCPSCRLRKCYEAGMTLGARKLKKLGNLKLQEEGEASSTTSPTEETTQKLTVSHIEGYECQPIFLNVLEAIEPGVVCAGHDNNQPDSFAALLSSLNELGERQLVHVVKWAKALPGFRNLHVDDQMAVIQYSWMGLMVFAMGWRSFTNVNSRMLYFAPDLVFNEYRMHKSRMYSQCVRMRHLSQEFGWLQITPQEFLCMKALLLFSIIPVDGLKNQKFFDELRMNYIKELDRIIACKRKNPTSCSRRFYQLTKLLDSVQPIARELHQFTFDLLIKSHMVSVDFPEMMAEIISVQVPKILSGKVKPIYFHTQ
Briefly: AR whole cell competitive binding assay (3H-DHT), transfected COS-1 cells. On the set-up: expressed in transfected cells; transient transfection with pRShAR. The conditions noted are these: AR Binding Ki (nM), COS-1 cells, 1 nM 3H-DHT, Cheng-Prusoff from IC50. As for the experimental part: AR Binding: For the whole cell binding assay, COS-1 cells in 96-well microtiter plates containing DMEM-10% FBS were transfected as described above with the following plasmid DNA: pRShAR (2 ng/well), pRS-β-Gal (50 ng/well) and pGEM (48 ng/well). Six hours after transfection, media was removed, the cells were washed with PBS and fresh media was added. The next day, the media was changed to DMEM-serum free to remove any endogenous ligand that might be complexed with the receptor in the cells.
Three replicates were used for each sample. […] The remaining media was removed, the cells were washed three times with PBS to remove unbound ligand and cells were lysed with a Triton X-100-based buffer.
For the saturation analyses, the difference between the total binding and the nonspecific binding, normalized by the β-Gal rate, was defined as specific binding. […] The Ki values were determined by application of the Cheng-Prusoff equation to the IC50 values, where: […]
After correcting for non-specific binding, IC50 values were determined. […] The IC50 value was determined graphically from a log-logit plot of the data. The Ki values were determined by application of the Cheng-Prusoff equation to the IC50 values, the labeled ligand concentration and the Kd of the labeled ligand.

Test [2] has as its target T1, human AR. Briefly: Co-transfection assay, AR antagonist activity in presence of DHT, CV-1 cells. It is filed as cell-based. The arrangement: expressed in transfected cells; host or cells: CV-1 cells (African green monkey kidney fibroblasts), transient transfection with pRShAR. Particulars: CV-1 cells; for IC50: AR Antagonist CV-1 Cells Potency (nM), antagonist potency or IC50, DHT at its EC50 concentration; for AR Antagonist CV-1 Cells Efficacy (%): percent maximal inhibition, DHT at its EC50 concentration. From the text:
(§1) The co-transfection assay provides a method for identifying functional agonists and partial agonists which mimic, or antagonists which inhibit, the effect of native hormones and quantifying their activity for responsive IR proteins. In this regard, the co-transfection assay mimics an in vivo system in the laboratory. Importantly, activity in the co-transfection assay correlates very well with known in vivo activity, such that the co-transfection assay functions as a qualitative and quantitative predictor of a tested compounds in vivo pharmacology. See, e.g., T. Berger et al. 41 J. Steroid Biochem. Molec.
(§2) In the co-transfection assay, a cloned cDNA for an IR (e.g., human PR, AR or GR) under the control of a constitutive promoter (e.g., the SV 40 promoter) is introduced by transfection (a procedure to induce cells to take up foreign genes) into a background cell substantially devoid of endogenous IRs. This introduced gene directs the recipient cells to make the IR protein of interest. A second gene is also introduced (co-transfected) into the same cells in conjunction with the IR gene. This second gene, comprising the cDNA for a reporter protein, such as firefly luciferase (LUC), controlled by an appropriate hormone responsive promoter containing a hormone response element (HRE). This reporter plasmid functions as a reporter for the transcription-modulating activity of the target IR. Thus, the reporter acts as a surrogate for the products (mRNA then protein) normally expressed by a gene under control of the target receptor and its native hormone.
(§3) The co-transfection assay can detect small molecule agonists or antagonists of target IRs. Exposing the transfected cells to an agonist ligand compound increases reporter activity in the transfected cells. This activity can be conveniently measured, e.g., by increasing luciferase production, which reflects compound-dependent, IR-mediated increases in reporter transcription. […] To detect antagonists, the co-transfection assay is carried out in the presence of a constant concentration of an agonist to the target IR (e.g., progesterone for PR) known to induce a defined reporter signal. Increasing concentrations of a suspected antagonist will decrease the reporter signal (e.g., luciferase production). The co-transfection assay is therefore useful to detect both agonists and antagonists of specific IRs. Furthermore, it determines not only whether a compound interacts with a particular IR, but whether this interaction mimics (agonizes) or blocks (antagonizes) the effects of the native regulatory molecules on target gene expression, as well as the specificity and strength of this interaction.
(§4) CV-1 cells (African green monkey kidney fibroblasts) were cultured in the presence of Dulbecco's Modified Eagle Medium (DMEM) supplemented with 10% charcoal resin-stripped fetal bovine serum then transferred to 96-well microtiter plates one day prior to transfection.
(§5) The reporter plasmid, MTV-LUC, contains the cDNA for firefly luciferase (LUC) under control of the mouse mammary tumor virus (MTV) long terminal repeat, a conditional promoter containing an androgen response element. See e.g., Berger et al. supra. In addition, pRS-β-Gal, coding for constitutive expression of E. coli β-galactosidase (β-Gal), was included as an internal control for evaluation of transfection efficiency and compound toxicity.
(§6) Six hours after transfection, media was removed and the cells were washed with phosphate-buffered saline (PBS). […] Three to four replicates were used for each sample. Transfections and subsequent procedures were performed on a Biomek 1000 automated laboratory work station.
(§7) After 40 hours, the cells were washed with PBS, lysed with a Triton X-100-based buffer and assayed for LUC and β-Gal activities using a luminometer or spectrophotometer, respectively. For each replicate, the normalized response (NR) was calculated as: LUC response/β-Gal rate • where β-Gal rate=β-Gal·1×10^−5/β-Gal incubation time.

In test [3] the target is T1, human AR. As to the kind of experiment: Co-transfection assay, AR agonist activity, CV-1 cells. The format is cell-based. The arrangement: expressed in transfected cells; host or cells: CV-1 cells (African green monkey kidney fibroblasts), transient transfection with pRShAR. The conditions noted are these: for EC50: AR Agonist CV-1 Cells Potency (nM), agonist potency or EC50; for AR Agonist CV-1 Cells Efficacy (%): percent maximal response relative to reference agonist DHT.
Description: as §1, §2, §3, §4, §5, §6, §7

For `CCN1c2cc3c(C(F)(F)F)cc(=O)[nH]c3cc2C2CCCC21` (racemic) [Compound 122, (±)-6,6a 7,8,9,9a(cis)-Hexahydro-6-ethyl-4-trifluoromethylcyclopentano-[i]pyrrolo[2,3-g]quinolin-2(1H)-one], the inhibition constant Ki in test [1] worked out at 21 nM. In test [2], the 50% inhibitory concentration (IC50) was greater than 10000 nM; the “AR Antagonist CV-1 Cells Efficacy (%)” value was “na (na = not active (i.e. efficacy of <20 and potency of >10,000))”. In test [3], the 50% effective concentration (EC50) is 34 nM and the “AR Agonist CV-1 Cells Efficacy (%)” value is 59%.

`CC1c2c(ccc3[nH]c(=O)cc(C(F)(F)F)c23)N(CC(F)(F)F)C1C` (racemic) [Compound 123, (±)-5,6-Dihydro-5,6-cis-dimethyl-7-(2,2,2-trifluoroethyl)-4-trifluoromethyl-7H-pyrrolo[3,2-f]quinolin-2(1H)-one]: the Ki in test [1] was 14 nM. In test [2], the half-inhibitory concentration (IC50) was greater than 10000 nM; the “AR Antagonist CV-1 Cells Efficacy (%)” value was “na (na = not active (i.e. efficacy of <20 and potency of >10,000))”. In addition, in test [3], the response was half-maximal at 1.4 nM (EC50) and the “AR Agonist CV-1 Cells Efficacy (%)” value came out at 104%.

In test [1], `CCCN1c2ccc3[nH]c(=O)cc(C(F)(F)F)c3c2C2CCCC21` (racemic) [Compound 125, (±)-4c,5,6,7,7a(cis),8-Hexahydro-8-propyl-4-trifluoromethylcyclopentano-[g]pyrrolo-[3,2-f]quinolin-2(1H)-one] registered an inhibition constant (Ki) of 1.3 nM. In test [2], the IC50 is greater than 10000 nM; the “AR Antagonist CV-1 Cells Efficacy (%)” value is “na (na = not active (i.e. efficacy of <20 and potency of >10,000))”. In addition, in test [3], the response was half-maximal at 38 nM (EC50) and the “AR Agonist CV-1 Cells Efficacy (%)” value was determined as 121%.

In turn, `O=c1cc(C(F)(F)F)c2c3c(ccc2[nH]1)N(Cc1ccoc1)C1CCCC31` (racemic) [Compound 126, (±)-4c,5,6,7,7a(cis),8-Hexahydro-8-(3-furanylmethyl)-4-trifluoromethyl-cyclopentano[g]pyrrolo[3,2-f]quinolin-2(1H)-one] displayed a Ki in test [1] of 2.3 nM. Further, in test [2], the IC50 was greater than 10000 nM; the “AR Antagonist CV-1 Cells Efficacy (%)” value was “na (na = not active (i.e. efficacy of <20 and potency of >10,000))”. In test [3], the “AR Agonist CV-1 Cells Efficacy (%)” value is listed as 53%.

For the compound `O=c1cc(C(F)(F)F)c2c3c(ccc2[nH]1)N(Cc1ccsc1)C1CCCC31` (racemic) [Compound 127, (±)-4c,5,6,7,7a(cis),8-Hexahydro-8-(3-thiophenemethyl)-4-trifluoromethyl-cyclopentano[g]pyrrolo[3,2-f]quinolin-2(1H)-one], affinity in test [1] was put at a Ki of 6.3 nM. For the same compound, in test [2], the IC50 was greater than 10000 nM; the “AR Antagonist CV-1 Cells Efficacy (%)” value was “na (na = not active (i.e. efficacy of <20 and potency of >10,000))”. Besides, in test [3], the EC50 was 25 nM and the “AR Agonist CV-1 Cells Efficacy (%)” value is given as 66%.

The compound `O=c1cc(C(F)(F)F)c2c3c(ccc2[nH]1)N(CC(F)(F)Cl)C1CCCC31` (racemic) [Compound 129, (±)-4c,5,6,7,7a(cis),8-Hexahydro-8-(2,2,2-chlorodifluoroethyl)-4-trifluoromethylcyclopentano[g]pyrrolo[3,2-f]quinolin-2(1H)-one] showed a Ki in test [1] of 3.2 nM. In test [2], the IC50 was greater than 10000 nM; the “AR Antagonist CV-1 Cells Efficacy (%)” value was “na (na = not active (i.e. efficacy of <20 and potency of >10,000))”. Moreover, in test [3], the EC50 turned out to be 1.6 nM and the “AR Agonist CV-1 Cells Efficacy (%)” value amounted to 79%.

For the compound `O=c1cc(C(F)(F)F)c2c3c(ccc2[nH]1)N(CC(F)(F)F)C1CCCCC31` (racemic) [Compound 132, (±)-4c,5,6,7,8,8a(cis),9-Heptahydro-9-(2,2,2-trifluoroethyl)-4-trifluoro-methyl-9H-cyclohexano[g]pyrrolo[3,2-f]quinolin-2(1H)-one], in test [1], the inhibitory constant (Ki) turned out to be 21 nM. Also, in test [2], the IC50 is greater than 10000 nM; the “AR Antagonist CV-1 Cells Efficacy (%)” value is “na (na = not active (i.e. efficacy of <20 and potency of >10,000))”. Moreover, in test [3], the half-maximal effective concentration (EC50) turned out to be 4.8 nM and the “AR Agonist CV-1 Cells Efficacy (%)” value is listed as 70%.

The compound `CCC1C(C)c2c(ccc3[nH]c(=O)cc(C(F)(F)F)c23)N1CC(F)(F)F` (racemic) [Compound 134, (±)-5,6-cis-Dihydro-6-ethyl-5-methyl-7-(2,2,2-trifluoroethyl)-4-trifluoromethyl-7H-pyrrolo[3,2-f]quinolin-2(1H)-one] displayed an inhibitory constant (Ki) in test [1] of 6.8 nM. In test [2], the half-inhibitory concentration (IC50) was greater than 10000 nM; the “AR Antagonist CV-1 Cells Efficacy (%)” value is “na (na = not active (i.e. efficacy of <20 and potency of >10,000))”. Moreover, in test [3], a half-maximal response (EC50) required 4.2 nM and the “AR Agonist CV-1 Cells Efficacy (%)” value is 70%.
